In patent US10220100B2, “Halogenated phenols for diagnostics, antioxidant protection and drug delivery” (priority 2011, dated 2019):

Key:
[1] = tested on: sites of the wound or injury; conditions: mice administered the compound, small injuries (cuts, scratches); data not shown
[2] = tested on: spontaneous mammary tumors; conditions: 10 mg by gavage; X-ray imaging about two hours after; mice with spontaneous tumors; same mice before treatment showed no foci
Excerpt: As described above, oxidative foci or tumors may be identified by X-ray radiographic imaging of animals following administration of an indigogenic compound of the present invention. The radio-opaque indigo-like product formed and deposited with residence time in FROS-containing tumor tissues may then be detected.
In this example, female C3H/HeN mice were obtained as multiparous retired breeders (i.e., after 3 to 4 litters) that were positive for a mammary tumor virus. […] Mice showing spontaneous tumors were given 10 mg of 5-Iodo-Indoxyl-3′,5′-Diiodo-4′-hydroxy ether substrate (product of Example 4) by gavage. These mice were then subjected to X-ray imaging of the tumors about two hours after being fed the iodo-indigogenic compound. […] When developed, the X-ray film appears dark in areas where more transmission occurs and light in areas where less transmission occurs.

thyroid hormone activity = conditions: cited from earlier work
[3] = Cleavage of the C—C bond during the oxidative dehalogenation reaction; assay type: physicochemical; conditions: presence of free radicals and/or oxidative agents
Excerpt: It has also been discovered that other types of bonds or linkages may also be cleaved by oxidative or free radical-mediated dehalogenation of the phenol ring. For example, as described herein, it has now been observed that a carbonyl linkage, a nitrogen linkage, a sulfinyl linkage and possibly a C—C bond on the phenol ring may also be cleaved by the oxidative dehalogenation reaction. These bonds are also considered stable, and their cleavage in connection with the dehalogenation reaction is surprising as well. One caveat with the C—C bond or linkage is that depending on the particular starting compound structure and the substituents or groups attached to the halogenated phenol ring via the C—C bond, the C—C bond or linkage may or may not be generally cleaved during or following the dehalogenation reaction (see below). […] However, other compounds do become cleaved. It is important to note that whether a C—C bond of a particular starting compound is “cleavable,” or becomes cleaved, may not be all-or-nothing (i.e., the C—C bond may be considered non-cleavable even though a small or minute amount of cleavage may occur, and vice versa). Thus, the amount or percentage of cleavage may be partial with the alternatively cleaved or non-cleaved product being possibly undetected or minute. […]

[4] = Spontaneous dehalogenation and ether cleavage in buffered aqueous solution exposed to sunlight; assay type: physicochemical; conditions: about 1 mM in carbonate buffer (pH 8.0), sunlight for about one hour; yellow/orange solution, iodide released
Excerpt: In contrast to reductive deiodination, spontaneous dehalogenation (e.g., deiodination) of a halogentated phenol ring in the presence of an oxidizing agent(s) and/or free radical(s) with cleavage of a chemical linkage, such as an ether linkage, etc., between the phenol ring and a conjugated compound has not been described. According to the present invention, cleavage of the ether linkage between the aromatic rings of thyroid hormone may form visibly colored quinone and iodine-containing products in buffered aqueous solutions in vitro, and this ether cleavage reaction may be accelerated under basic pH conditions and with exposure to ionizing radiation or light. These conditions favor the increased formation of oxidizing agents and/or free radicals, which are believed to promote the reaction. […] A quinone and an iodotyrosine product are also formed by cleavage of the ether linkage during the reaction. According to embodiments of the present invention, a spontaneous reaction of dehalogenation and cleavage of a chemical bond is proposed for the targeted delivery and release of a drug compound at or to sites of inflammation or disease. This spontaneous reaction is further proposed as a basis for scavenging free radicals and/or oxidative agents (FROS) as well as for the creation of a detectable compound(s) that may be used for diagnostic purposes.

Oc1c(I)cc(Oc2c[nH]c3ccc(I)cc23)cc1I [5-Iodo-Indolyl-3′,5′-Diiodo-4′-hydroxyl-p-Phenol Ether]
X-ray detection at sites of wound or injury [1]: strong detection was observed at the sites of the wound or injury | radio-opaque tumor regions or foci by X-ray [2]: radio-opaque tumor regions or foci

N[C@@H](Cc1ccc(Oc2cc(I)c(O)c(I)c2)c(I)c1)C(=O)O [Reverse T3, 3,3′,5′-triiodothyronine]
thyroid hormone activity (thyroid hormone activity): no measurable thyroid hormone activity

N[C@@H](Cc1ccc(O)c(I)c1)C(=O)O [mono-iodotyrosine, 3-iodo-4-hydroxy-L-phenylalanine]
cleavage of C—C bond with the dehalogenation reaction [3]: generally not to be cleaved | cleavage of C—C bond with the dehalogenation reaction ([3]; listed as MIT): generally not be cleaved

N[C@@H](Cc1cc(I)c(Oc2cc(I)c(O)c(I)c2)c(I)c1)C(=O)O [thyroxine]
cleavage of the ether linkage [4]: the ether linkage is broken spontaneously
